From US20250118786A1, “LONG-LIVED REDOX-ACTIVE MOLECULES WITH LOW REDOX POTENTIAL” (President and Fellows of Harvard College, priority 2021, published 2025)
Where two headings read alike, the source gives them in different places.

What was measured:
[1] = Solubility in water and salt solutions; assay type: physicochemical
[2] = Cyclic voltammetry (three-electrode system); assay type: physicochemical
Experimental: A glassy carbon (BASi, 3 mm diameter) working electrode, an Ag/AgCl reference electrode (BASi, 3 M NaCl solution), and a graphite counter electrode were used in the three-electrode system for all CV tests. The scan rates for CV tests were 10, 20, 50, 100, and 200 mV s^−1. The diffusion coefficient D was calculated based on the Randles-Sevcik equation: Ip=269000×n^1.5 AD^0.5v^0.5C, where Ip is the peak current in amps, n is the number of electrons involved (n=2 for 2,6-N-TSAQ) in the redox reaction, A is the active surface area (0.0707 cm^2), D is the diffusion coefficient in cm^2/s, v is the scan rate in V/s, and C is the concentration of redox species in mol/cm^3.
The reduction potential of 2,6-N-TSAQ is-0.62 V vs. SHE in 1M NaCl, which is 120 mV and 170 mV lower than that of 2,6-O-DPSAQ and 2,6-DPSAQ in 1M NaCl, respectively. The low redox potential of 2,6-N-TSAQ is attributed to the strong electron donating effect of N-alkyl group. It contributes to form a high working voltage and high power density flow battery. […] The ammonium cation, however, sacrifices the redox potential of 2,6-N-TSAQ as the local pH is always lower than the pKa2 of 9,10-dihydroxyanthracene, which is also observed in the reported 9,10-anthraquinone-2,7-disulfonic diammonium salt.

[3] = Long-term cycling of 0.1 M 2,6-N-TSAQ/ferrocyanide flow cell
Experimental: Flow battery experiments were performed with cell and hardware from Fuel Cell Tech. (Albuquerque, NM). Pyrosealed POCO graphite flow plates with serpentine flow designs were used for both electrodes. Each electrode comprised a single 5 cm^2 geometric surface area sheet of AvCarb carbon electrode. For 2,6-N-TSAQ/ferrocyanide full cell tests, a Nafion™ 212 membrane was used to serve as the ion-selective membrane. The Nafion membrane was soaked in the supporting electrolyte (sodium hydroxide or sodium chloride) for at least 24 hours before use. Viton sheets were used to cover the outer portion space between the electrodes. Torque used for cell assembly was 60 lb-in (6.78 Nm) on each of eight 1/4-28 bolts. The electrolytes were fed into the cell through fluorinated ethylene propylene (FEP) tubing at a rate of 60 mL/min, controlled by Cole-Parmer 6 Masterflex L/S peristaltic pumps. The cell was run inside a glove box (1 ppm O2). Cell polarization measurements and charge-discharge cycling were conducted using a Biologic BCS-815 battery cycler. […] The polarization curves were obtained by charging to a desired state of charge first and then polarizing via linear sweep voltammetry at a rate of 100 mV s^−1.
Long-term cycling testing of 0.1 M 2,6-N-TSAQ/ferrocyanide was performed with the same cell. The cell was cycled at 40 mA cm^2 with potential holds at 1.4 V for charging and 0.6 V for discharging until the current density dropped to 2 mA cm^−2. The initial discharge capacity was 4.764 Ah L^−1, corresponding to a capacity utilization of 88.9% of the theoretical value. However, the OCV at different SOC values in FIG. 8 (a) and the typical voltage profile in FIG. 9 (c) indicates it accesses the complete capacity of 2,6-N-TSAQ under such conditions. The differences between the actual capacity and the theoretical value could come from non-redox active impurities such as water or salts in the sample. […] The average coulombic efficiency was determined to be above 99.9%. […]

[4] = Storage in 1 M NaCl at 65° C. for 8 days, 1H NMR; assay type: physicochemical
Text: For comparison, the long-term cycling of the 0.1 M 2,6-N-TSAQ/ferrocyanide cell was operated at neutral condition (1 M sodium chloride) but, otherwise, the same conditions. The initial volumetric capacity was 4.774 Ah L^−1, which is similar to that at pH 14. After 2.84 days cycling, the discharge capacity dropped to 4.412 Ah/L, corresponding to a capacity fade rate of 2.6%/day, which is around 2 orders magnitude higher than that at pH 14. And the coulombic efficiency is around 99.8% over the whole cycling process, which is slightly lower than that at pH 14. […] To investigate the origin of instability of 2,6-N-TSAQ at neutral condition, both oxidized and reduced forms of 2,6-N-TSAQ were stored in 1 M NaCl at 65° C. for 8 days.

[5] = water, read-out: water solubility

Compound: O=C1c2ccc(OCCCS(=O)(=O)[O-])cc2C(=O)c2ccc(OCCCS(=O)(=O)[O-])cc21.[Na+].[Na+] [2,6-O-DPSAQ, sodium 3,3′-((9,10-anthraquinone-2,6-diyl)bis(oxy))bis(propane-1-sulfonate)]
- solubility ([1]; 1 M lithium chloride, saline or isotonic, 1 M lithium chloride, read-out: solubility): 10 mM
- solubility ([1]; 1 M sodium chloride, saline or isotonic, 1 M sodium chloride, read-out: solubility): < 5 mM
- solubility ([1]; deionized water, water, deionized water, read-out: solubility): 10 mM

Compound: O=C1c2ccc(N(CCCS(=O)(=O)O)CCCS(=O)(=O)O)cc2C(=O)c2ccc(N(CCCS(=O)(=O)O)CCCS(=O)(=O)O)cc21 [2,6-N-TSAQ, sodium 3,3′,3″,3′″-((9,10-anthraquinone-2,6-diyl)bis(azanetriyl))tetrakis(propane-1-sulfonate)]
- reduction potential ([2]; 1M NaCl (unbuffered)): −0.62 V vs. SHE
- reduction potential lower than that of 2,6-DPSAQ ([2]; difference versus 2,6-DPSAQ): 170 mV
- reduction potential lower than that of 2,6-O-DPSAQ ([2]; difference versus 2,6-O-DPSAQ): 120 mV
- solubility ([1]; water, with ammonium ion exchange, read-out: solubility): 650 mM
- solubility [1, 5]: 450 mM
- capacity fade rate ([3]; neutral condition (1 M sodium chloride), 0.1 M, 2.84 days cycling): 2.6 %/day
- cycle-denominated capacity fade rate ([3]; pH 14, 0.1 M, full SOC range cycling): 0.00024 %/cycle
- temporal capacity fade rate ([3]; pH 14, 0.1 M, full SOC range cycling, 9 days): 0.025 %/day
- decomposition by 1H NMR, oxidized state ([4]; oxidized form): no apparent decomposition
- decomposition by 1H NMR, reduced state ([4]; reduced form): a large quantity of decomposition

Compound: O=C1c2ccc(CCCS(=O)(=O)[O-])cc2C(=O)c2ccc(CCCS(=O)(=O)[O-])cc21.[Na+].[Na+] [2,6-DPSAQ, sodium 3,3′-(9,10-anthraquinone-2,6-diyl)bis(propane-1-sulfonate)]
- solubility [1, 5]: 300 mM
